Assay results published in patent publication US20130123358A1, “Metabolic Benefits to Butyrate as a Chronic Diet Supplement” (priority 2009, published 2013).

What was measured:
[1] = tested on: IRS-1 and Akt phosphorylation; assay: Insulin signaling immunoblot in gastrocnemius muscle after insulin injection; format: in vivo, mouse; settings: butyrate 5% w/w in HFD 13 weeks, 30 min after insulin 0.75 U/kg
Description: Fresh fat and muscles were collected and frozen in liquid nitrogen. The whole cell lysate protein was extract in lysis buffer with sonication and analyzed in western blot as described elsewhere (16). Antibodies were used in study of myoglobin (sc-25607, Santa Cruz), PGC-1 (sc-13068, Santa Cruz), Tubulin (ab7291, Abcam), myosin (M8421, Sigma), pAMPK (Thr 172, #2531, Cell signaling) and p-p38 (sc-7975, Santa Cruz). To detect multiple signals from one membrane, the membrane was stripped with a stripping buffer. Intensity of the immunoblot signal was quantified using a computer program, ImageJ 1.37v (NIH). The mean values of results from three experiments (6 mice each group) were presented. The antibodies to PGC-1α and UCP-1 were from Dr. Thomas Gettys at Pennington Biomedical Research Center, Baton Rouge, La.
Tail vein blood was used for the glucose assay after 16 hr fasting during the period of HFD feeding. […] The insulin was determined at 16 weeks on HFD in fasting condition with Lincoplex kit (#MADPK-71k-03, Linco Research Inc., St. Charles, Mo.). […] After an overnight fast, blood glucose and insulin were measured and used to determine insulin sensitivity through HOMA IR (IR=fasting insulin […] X fasting glucose mg/dL÷405). […] FIG. 2F illustrates the degree of the blot signal in the panel 2E, by quantifying the signal and normalizing with protein loading. **P<0.001 (n=2).

epididymal fat pad = assay: White adipose tissue: fat pad morphology and gene expression; format: in vivo, mouse
Protocol: Total RNA was extracted from frozen tissues (kept at −80° C.) using Tri-Reagent (T9424, Sigma) as described elsewhere (16). Taqman RT-PCR primer and probe were used to determine mRNA for PGC-1α (Mm00447183_m1), UCP-1 (Mm00494069_m1), PPARδ (Mm01305434_m1) and CPT1b (Mm00487200_m1). The reagents were purchased from Applied Biosystems (Foster City, Calif.). Mouse ribosome 18S rRNA_s1 (without intron-exon junction) was used as an internal control. Reaction was conducted with 7900 HT Fast real time PCR System (Applied Biosystems, Foster City, Calif.).
Fresh tissues (muscle, fat and liver) were collected at 16 weeks of age after 12 weeks butyrate feeding and fixed in 10% neutral buffered formalin solution (HT50-1-2, Sigma). The tissue slides were obtained through serial cross-section cutting at 8 um thickness and processed with a standard procedure. Briefly, the slides were deparaffinated and stained in haematoxylin (#101542, Surgipath) for 15 min, and rinsed in water until sections are blue. Then, slides were stained in Eosin (E4009, Sigma), dehydrated quickly in 95% ethanol and treated with […]. The sections were mounted and photographed with Nikon microscope (Eclipse TS100, Japan).
(§1) The epididymal fat pad was examined to test this effect of butyrate. The tissue was collected at 13 weeks on HFD (18 weeks in age) and used to make a tissue slide (FIG. 3A). After H&E staining, the slide was photographed under a microscope at magnification 20× (FIG. 3A). Gene expression was determined by qRT-PCR at day 8 after induction of cell differentiation of 3T3-L1 cells. Butyrate was used at 100 uM during induction of adipogenesis. Triglycerides in the 3T3-L1 mature adipocyte cells were quantified using Oil red 0 staining at the day 8 post-induction of differentiation (FIG. 3C). In addition, levels of mRNA for leptin, adiponectin, F4/80 (macrophage marker), TNF-α, and iNOS were determined in the epididymal fat and their relative levels are presented in bar figures (FIGS. 3D-3H). In FIGS. 3A-3H, data are represented as mean±SE (n=8). *P<0.05, **P<0.001.

3T3-L1 cells = assay: Adipogenesis in 3T3-L1 cells (qRT-PCR, Oil red O); format: cell-based
Protocol: as §1
To confirm the butyrate effect on adipocytes, 3T3-L1 cells were used to study butyrate activity in vitro. The cells were treated with butyrate during induction of adipogenesis, which was determined by expression of adipocyte-specific genes and triglyceride amount. […] However, expression of leptin was reduced by butyrate (FIG. 3B). The reduction may be a result of a decrease in triglyceride accumulation in the differentiated 3T3-L1 adipocytes (FIG. 3C). The triglyceride level was reduced 50% in the cells treated by butyrate.

[2] = tested on: obese C57BL/6J mice on HFD; assay: Treatment of obese mice (16 weeks HFD) with butyrate for 5 weeks; format: in vivo, mouse
Protocol: In the above examples, butyrate was administrated together with HFD during the induction of obesity. To test butyrate in the treatment of obesity and insulin resistance, butyrate was administered to obese mice that had been on HFD for 16 weeks. Obesity was induced in C57BL/6J mice fed on HFD for 16 weeks (21 weeks in age). The obese mice were then treated with butyrate through food supplement for 5 weeks. […] In the control group, the body weight was increased by 15.8% (from 35.9 g to 41.6 g) during the same time period. Values are the means±SE (N=8 in each group). * P<0.05.
Fat content was determined in the body using NMR at the end of 5 week treatment with butyrate. Consistent with the change in body weight, the fat content was reduced by 10% in the butyrate group (FIG. 9B). At the end of 5 weeks, ITT was performed after 4 hours fast and HOMA IR was measured as described above. […] Values are the means±SE (N=8 in each group). * P<0.05.

[3] = tested on: class I and class II histone deacetylases (HDACs); settings: cited from earlier work
[4] = butyrate 5% w/w in HFD vs control, mRNA
[5] = butyrate 100 uM during induction of adipogenesis, qRT-PCR day 8

For `CCCC(=O)[O-].[Na+]` [sodium butyrate], the “threonine 308 phosphorylation of Akt” value [1] was “increased”, the “tyrosine 632 (Y632) phosphorylation of IRS-1” value [1] was “increased” and the “TNF-α expression in epididymal fat” value (epididymal fat pad; [4]) was “reduced”. For the same compound, the “iNOS expression in epididymal fat” value (epididymal fat pad; [4]) was “reduced”, the “leptin expression in epididymal fat” value (epididymal fat pad; [4]) was “lower level” and the “macrophage marker F4/80 expression in epididymal fat” value (epididymal fat pad; [4]) was “reduced”. The “epididymal fat pad mass, less than control” value (epididymal fat pad; butyrate 5% w/w in HFD, 13 weeks) was 80%, the “adipocyte size, smaller than control” value (epididymal fat pad; butyrate 5% w/w in HFD, 13 weeks, H&E) was 50% and the “adiponectin expression in epididymal fat, higher than control” value (epididymal fat pad; butyrate 5% w/w in HFD, mRNA) was 50%. The “adipocyte-specific markers (PPARδ, aP2, SREBP, and adiponectin)” value (3T3-L1 cells; [5]) was “not reduced”, the expression of leptin (3T3-L1 cells; [5]) was “reduced” and the “triglyceride level, reduction” value (3T3-L1 cells; butyrate 100 uM, Oil red O, day 8 post-induction) was 50%. The “HOMA-IR, reduction” value ([2]; 5-week butyrate treatment) was 50%, the “fasting glucose, reduction” value ([2]; 5-week butyrate treatment) was 30% and the “fasting glucose after treatment” value ([2]; 5-week butyrate treatment, from 131) was 98.6 mg/dL. The “loss of original body weight” value ([2]; 5-week treatment with butyrate in food) was 10.2%, the ITT ([2]; end of 5-week butyrate treatment, 4 hours fast) was “improved significantly” and the “fat content, reduction” value ([2]; end of 5-week butyrate treatment, NMR) was 10%. The “body weight after treatment” value ([2]; end of 5-week butyrate treatment, from 37.6 g) was 34.4 g and the “effect on class I and class II HDACs” value [3] was “inhibition”.
